Measurements reported in PMC12596218 (Journal of Lipid Research, 2025).
Several values for one entry are separate records, joined by “and”; a condition that tells them apart may be missing. Identical values can stand only once. Like-named read-outs stand apart in the source and are kept apart here. Values belong to the molecule of their own block, whether it stands above or below them.

Assays:
SOAT = molecular target: T1, SOAT (Homo sapiens, UniProt Q3KNW5); assay: [3H]DHEAS transport inhibition assay in SOAT-HEK293 cells; type: cell-based; conditions: 1 μM [3H]DHEAS; for IC50: 10 min, SOAT-HEK293, two independent experiments
T1 construct: stably transfected with the full open reading frames of human NTCP, ASBT, SOAT, OATP1B1, OATP1B3, OATP2B1, and murine Asbt (mAsbt); expressed in transfected cells; host or cells: HEK293 (Flp-In), stably transfected, tetracycline-induced
T1 sequence (Q3KNW5 1-377): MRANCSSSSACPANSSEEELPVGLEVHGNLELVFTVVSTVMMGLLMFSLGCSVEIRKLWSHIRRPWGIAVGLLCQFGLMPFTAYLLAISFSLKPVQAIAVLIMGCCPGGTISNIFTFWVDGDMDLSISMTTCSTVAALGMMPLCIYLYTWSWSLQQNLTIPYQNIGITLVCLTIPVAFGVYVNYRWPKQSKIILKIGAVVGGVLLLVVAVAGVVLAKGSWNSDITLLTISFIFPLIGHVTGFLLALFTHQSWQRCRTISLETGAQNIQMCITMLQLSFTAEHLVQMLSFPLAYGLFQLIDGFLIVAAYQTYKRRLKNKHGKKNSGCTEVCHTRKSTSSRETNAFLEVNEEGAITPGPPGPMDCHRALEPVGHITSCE
From the text: (§1) Human embryonic kidney HEK293 cells, stably transfected with the full open reading frames of human NTCP, ASBT, SOAT, OATP1B1, OATP1B3, OATP2B1, and murine Asbt (mAsbt) were used as reported ([18], [20], [21], [22], [23]). The NTCP, ASBT, and mAsbt constructs were C-terminally tagged with the FLAG epitope, and the SOAT construct was C-terminally tagged with green fluorescent protein. Non-transfected Flp-In HEK293 cells (Thermo Fisher Scientific) served as the control. All cell lines were maintained at 37°C, 5% CO2 and 95% humidity in DMEM/F-12 medium (Thermo Fisher Scientific) supplemented with 10% fetal calf serum (Sigma-Aldrich), 4 mM L-glutamine (PAA) and penicillin/streptomycin (PAA). Expression of the respective carrier protein was induced by tetracycline treatment at 1 μg/ml (Carl Roth GmbH + Co. KG).
(§2) Cells were seeded onto poly-L-lysine-coated 96-well plates, induced with 1 μg/ml tetracycline, and grown to confluence over 72 h at 37°C. Then, cells were washed with tempered (37°C) phosphate-buffered saline (PBS, containing 137.0 mM NaCl, 2.7 mM KCl, 1.5 mM KH2PO4, and 7.3 mM Na2HPO4, at pH 7.4) and preincubated with 80 μl sodium transport buffer (STB, containing 142.9 mM NaCl, 4.7 mM KCl, 1.2 mM MgSO4, 1.2 mM KH2PO4, 1.8 mM CaCl2, and 20.0 mM HEPES, at pH 7.4) for 5 min at 37°C. For inhibition studies, the medium was replaced by 80 μl STB containing the respective inhibitor or solvent alone and cells were further incubated for 5 min at 37°C. Transport experiments were started by adding 20 μl of a 5-fold concentrated substrate solution (solved in STB). For transport experiments under sodium-free conditions the same buffer composition was used as for STB, but sodium chloride was substituted with equimolar concentrations of choline chloride as previously reported ([20], [24]). Transport experiments were stopped by washing twice with ice-cold PBS and the plates were kept cool on ice until adding the lysis buffer [1% sodium dodecyl sulfate (SDS) and 1 N NaOH]. Then, the cell-associated radioactivity of the respective tritium-labeled substrate or ligand was quantified by liquid scintillation counting using MicroScint-20 scintillation cocktail (Revvity) in a Packard Microplate Scintillation Counter TopCount NXT (Packard Instrument Company). For IC50 transport inhibition measurements, the mean uptake values measured in non-carrier-expressing HEK293 control cells were defined as 0% uptake control and were subtracted from all other values. Values from cells without inhibitor and solvent alone were set to 100%. Finally, all net transport data were expressed as uptake or binding as % of control. All transport or inhibition graphs were generated with GraphPad Prism 6 (GraphPad). Determination of half maximal inhibitory concentrations (IC50) was done by nonlinear regression analysis using the equation log (inhibitor) versus response—variable slope settings. All data points of the IC50 curves represent means ± SD of quadruplicate determinations. For Km measurements, BS uptake in the absence of sodium was regarded as carrier-independent unspecific uptake and was subtracted from the transport rates in the presence of sodium to obtain carrier-specific uptake rates (indicated as dashed lines). From the specific uptake rates, Michaelis Menten Km values were calculated by non-linear regression analysis.

OATP2B1 = molecular target: T2, OATP2B1 (Homo sapiens, UniProt O94956); assay: [3H]E1S transport inhibition assay in OATP2B1-HEK293 cells; type: cell-based; conditions: 200 nM [3H]E1S, 10 min; two independent experiments
T2 construct: stably transfected with the full open reading frames of human NTCP, ASBT, SOAT, OATP1B1, OATP1B3, OATP2B1, and murine Asbt (mAsbt); expressed in transfected cells; host or cells: HEK293, stably transfected (OATP2B1-HEK), tetracycline-induced
T2 sequence (O94956 1-709): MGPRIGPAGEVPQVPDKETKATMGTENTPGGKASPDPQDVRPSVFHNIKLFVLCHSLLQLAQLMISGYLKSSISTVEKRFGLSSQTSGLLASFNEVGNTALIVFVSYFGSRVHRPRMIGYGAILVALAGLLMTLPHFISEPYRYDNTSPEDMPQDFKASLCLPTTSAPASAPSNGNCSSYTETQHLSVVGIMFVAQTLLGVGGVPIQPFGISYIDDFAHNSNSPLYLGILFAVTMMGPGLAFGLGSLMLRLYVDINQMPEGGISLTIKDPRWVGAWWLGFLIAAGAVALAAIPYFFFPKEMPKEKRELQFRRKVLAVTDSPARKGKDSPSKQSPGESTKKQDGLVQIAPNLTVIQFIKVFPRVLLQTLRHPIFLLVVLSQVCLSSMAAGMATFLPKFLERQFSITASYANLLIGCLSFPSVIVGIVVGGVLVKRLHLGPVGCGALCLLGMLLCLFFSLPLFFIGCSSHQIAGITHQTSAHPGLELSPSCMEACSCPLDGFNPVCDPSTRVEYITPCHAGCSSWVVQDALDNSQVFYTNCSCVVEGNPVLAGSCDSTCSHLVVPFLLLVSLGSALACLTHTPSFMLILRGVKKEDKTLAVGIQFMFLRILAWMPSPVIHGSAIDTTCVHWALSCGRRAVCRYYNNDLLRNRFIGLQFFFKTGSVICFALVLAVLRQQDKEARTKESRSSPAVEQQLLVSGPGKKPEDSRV
From the text: as §1, §2

OATP1B3 = conditions: cited from earlier work; for IC50: read-out: IC50 OATP1B3 inhibition
[1] = cited from earlier work

Compound: CCCCC1(CCCC)CS(=O)(=O)c2ccc(N(C)C)cc2[C@@H](c2ccc(OCc3ccc(C[N+]45CCN(CC4)CC5)cc3)cc2)[C@H]1O [maralixibat]
IC50 (SOAT): 4.5 µM and 5.9 µM | IC50 (OATP2B1): 7.5 µM and 6 µM | OATP1B3 inhibition (in words) (OATP1B3; in vitro, ref FDA NDA 214662 Livmarli): In vitro, maralixibat did not inhibit the transporters OATP1B1 and OATP1B3. | Cmax, clinical drug concentration ([1]; 45 mg cohort study, fasted, ref EMA Livmarli assessment report variation): 1.62 ng/mL | Cmax, clinical drug concentration ([1]; 45 mg cohort study, fed, ref EMA Livmarli assessment report variation): 0.57 ng/mL

Compound: CCCCC1(CCCC)CS(=O)(=O)c2ccc(N(C)C)cc2[C@@H](c2ccc(OCCCC[N+]34CCN(CC3)CC4)cc2)[C@H]1O [SC-435]
IC50 (SOAT): 8.6 µM and 13.5 µM | IC50 (OATP2B1): > 10 µM and 40.3 µM and 36.5 µM

Compound: CCCC[C@]1(CC)CS(=O)(=O)c2cc(CNC(CC(=O)O)CC(=O)O)c(OC)cc2[C@@H](c2ccccc2)N1 [linerixibat]
SOAT inhibition (in words) (SOAT; inhibitor up to 100 μM): failed to significantly inhibit SOAT | IC50 (OATP2B1): > 10 µM and 26.1 µM and 22.5 µM | Substrate of OATP1B3 (OATP1B3): is a substrate | IC50 (OATP1B3; ref 65 Zamek-Gliszczynski et al. (2021)): 0.265 µM

Further lines, with some results ahead:

IC50 (SOAT): 3.2 µM and 3.3 µM | IC50 (OATP2B1): 3.9 µM and 3.6 µM
Compound: CCCCC1(CCCC)CN(c2ccccc2)c2cc(SC)c(OCC(=O)N[C@@H](C(=O)NCC(=O)O)c3ccccc3)cc2S(=O)(=O)C1 [elobixibat]
IC50 (OATP1B3; in vitro studies, ref PMDA Goofice Report on the Deliberation Results): > 0.6 µM | Cmax, clinical drug concentration ([1]; 15 mg cohort study, ref PMDA Goofice report): Elobixibat clinical drug concentration in the 15 mg cohort study: Cmax = 0.39 ng/ml.

IC50 (SOAT): 5.5 µM and 5.6 µM | IC50 (OATP2B1): 5.1 µM and 4 µM
Compound: CCCCC1(CCCC)CN(c2ccccc2)c2cc(SC)c(OCC(=O)N[C@@H](C(=O)N[C@@H](CC)C(=O)O)c3ccc(O)cc3)cc2S(=O)(=O)N1 [odevixibat]
IC50 (OATP1B3; in vitro studies, ref FDA NDA 215498 BYLVAY): 0.697 µM | OATP1B3 inhibition (in words) (OATP1B3; ref EMA EPAR Product Information Bylvay): Odevixibat does not inhibit OATP1B1 and OATP1B3. | Cmax, clinical drug concentration ([1]; 120 μg/kg/day cohort study, ref FDA (URL EMA Bylvay product information)): Odevixibat clinical drug concentration in the 120 μg/kg/day cohort study: Cmax = 0.62 ng/ml.
